PMC4685510, “A Cell Biologist’s Field Guide to Aurora Kinase Inhibitors” (Frontiers in Oncology, 2015)

How the values were obtained:
Experiment in all cases: biochemical
Type in all cases: biochemical
[1] = target: 363 human kinases (including Aurora A/B/C) (Homo sapiens, UniProt Q9Y463); conditions: DYRK1B, [ATP] 20 µM; for remaining activity at 0.1 µM: 100 nM; for remaining activity at 0.1 µM / remaining activity at 0.5 µM: read-out: % Enzyme Activity (relative to DMSO controls)
From the text: (§1) However, the Aurora A/B selectivity ratios derived from our in vitro and in vivo data can be compared to prioritize inhibitors.

[2] = target: T1, 363 human kinases (including Aurora A/B/C) (Homo sapiens, UniProt Q99683); conditions: ASK1/MAP3K5, [ATP] 100 µM; for remaining activity at 0.1 µM: 100 nM; for remaining activity at 0.1 µM / remaining activity at 0.5 µM: read-out: % Enzyme Activity (relative to DMSO controls)
T1 sequence (Q99683 1-1374): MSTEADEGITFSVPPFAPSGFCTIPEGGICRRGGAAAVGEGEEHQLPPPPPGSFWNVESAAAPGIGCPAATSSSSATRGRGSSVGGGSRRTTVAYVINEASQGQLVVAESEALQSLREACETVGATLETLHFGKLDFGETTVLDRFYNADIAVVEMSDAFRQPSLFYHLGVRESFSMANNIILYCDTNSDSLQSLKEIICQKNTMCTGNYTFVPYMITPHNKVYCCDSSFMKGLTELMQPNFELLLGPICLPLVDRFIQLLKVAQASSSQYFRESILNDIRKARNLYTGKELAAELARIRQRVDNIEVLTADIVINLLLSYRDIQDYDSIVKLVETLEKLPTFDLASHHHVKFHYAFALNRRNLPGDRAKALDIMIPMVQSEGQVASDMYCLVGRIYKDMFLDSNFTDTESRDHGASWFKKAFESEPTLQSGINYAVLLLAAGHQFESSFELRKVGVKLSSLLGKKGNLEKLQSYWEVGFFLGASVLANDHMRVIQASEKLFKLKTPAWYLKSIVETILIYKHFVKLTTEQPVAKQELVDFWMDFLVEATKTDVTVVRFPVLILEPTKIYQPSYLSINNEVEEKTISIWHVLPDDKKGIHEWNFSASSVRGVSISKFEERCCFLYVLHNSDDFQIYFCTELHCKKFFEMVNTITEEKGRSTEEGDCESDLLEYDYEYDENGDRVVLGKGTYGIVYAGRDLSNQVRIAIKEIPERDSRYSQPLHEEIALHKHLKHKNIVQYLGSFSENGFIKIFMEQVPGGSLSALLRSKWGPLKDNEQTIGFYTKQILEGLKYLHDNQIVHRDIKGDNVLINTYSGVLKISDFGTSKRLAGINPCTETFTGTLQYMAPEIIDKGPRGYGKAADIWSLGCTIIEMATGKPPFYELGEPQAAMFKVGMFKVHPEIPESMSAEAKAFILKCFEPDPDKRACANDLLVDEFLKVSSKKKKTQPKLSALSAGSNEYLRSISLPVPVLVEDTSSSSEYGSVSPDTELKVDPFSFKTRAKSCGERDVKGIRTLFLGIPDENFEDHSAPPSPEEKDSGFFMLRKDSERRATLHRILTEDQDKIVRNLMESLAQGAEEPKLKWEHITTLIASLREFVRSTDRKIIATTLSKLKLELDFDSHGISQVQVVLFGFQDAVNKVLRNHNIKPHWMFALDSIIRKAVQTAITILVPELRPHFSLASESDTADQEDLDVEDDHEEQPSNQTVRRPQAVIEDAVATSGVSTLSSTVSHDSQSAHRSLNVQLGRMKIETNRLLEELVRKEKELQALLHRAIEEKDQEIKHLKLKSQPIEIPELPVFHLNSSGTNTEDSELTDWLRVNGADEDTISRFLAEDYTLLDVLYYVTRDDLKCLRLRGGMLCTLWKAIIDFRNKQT
From the text: as §1

[3] = target: T2, 363 human kinases (including Aurora A/B/C) (Homo sapiens, UniProt O75385); conditions: ULK1; for remaining activity at 0.1 µM: 100 nM; for remaining activity at 0.1 µM / remaining activity at 0.5 µM: read-out: % Enzyme Activity (relative to DMSO controls)
T2 sequence (O75385 1-1050): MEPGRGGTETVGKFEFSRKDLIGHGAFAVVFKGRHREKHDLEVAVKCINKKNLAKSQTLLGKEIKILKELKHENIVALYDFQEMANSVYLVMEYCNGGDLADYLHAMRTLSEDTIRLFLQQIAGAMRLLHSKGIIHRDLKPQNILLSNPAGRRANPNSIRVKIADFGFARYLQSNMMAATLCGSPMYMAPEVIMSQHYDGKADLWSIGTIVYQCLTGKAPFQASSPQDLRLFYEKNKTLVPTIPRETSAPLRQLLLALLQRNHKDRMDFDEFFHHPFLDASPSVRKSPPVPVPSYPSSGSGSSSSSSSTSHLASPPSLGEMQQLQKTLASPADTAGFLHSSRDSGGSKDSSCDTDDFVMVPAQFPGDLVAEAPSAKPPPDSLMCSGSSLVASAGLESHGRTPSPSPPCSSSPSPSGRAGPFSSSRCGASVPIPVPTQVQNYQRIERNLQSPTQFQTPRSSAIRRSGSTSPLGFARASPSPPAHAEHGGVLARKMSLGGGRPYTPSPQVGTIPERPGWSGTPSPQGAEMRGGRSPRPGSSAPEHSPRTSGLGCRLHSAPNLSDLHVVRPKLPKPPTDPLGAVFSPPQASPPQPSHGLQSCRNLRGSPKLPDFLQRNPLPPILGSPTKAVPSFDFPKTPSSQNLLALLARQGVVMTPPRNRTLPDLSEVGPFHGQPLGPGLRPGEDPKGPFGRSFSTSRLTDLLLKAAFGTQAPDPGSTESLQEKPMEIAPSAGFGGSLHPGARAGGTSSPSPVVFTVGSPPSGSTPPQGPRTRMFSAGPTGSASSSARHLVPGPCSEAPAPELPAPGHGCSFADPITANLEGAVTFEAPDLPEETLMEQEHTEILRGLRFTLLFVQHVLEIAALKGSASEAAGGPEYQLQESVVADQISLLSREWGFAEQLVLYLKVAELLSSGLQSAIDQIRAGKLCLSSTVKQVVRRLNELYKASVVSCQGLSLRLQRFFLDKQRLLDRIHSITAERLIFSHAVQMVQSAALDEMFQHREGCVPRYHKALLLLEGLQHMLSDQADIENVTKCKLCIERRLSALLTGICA
From the text: as §1

[4] = target: 363 human kinases (including Aurora A/B/C) (Homo sapiens, UniProt Q9H0K1); conditions: SIK2; for remaining activity at 0.1 µM: 100 nM; for remaining activity at 0.1 µM / remaining activity at 0.5 µM: read-out: % Enzyme Activity (relative to DMSO controls)
363 human kinases (including Aurora A/B/C) (Homo sapiens, UniProt Q9H0K1), sequence (Q9H0K1 whole entry): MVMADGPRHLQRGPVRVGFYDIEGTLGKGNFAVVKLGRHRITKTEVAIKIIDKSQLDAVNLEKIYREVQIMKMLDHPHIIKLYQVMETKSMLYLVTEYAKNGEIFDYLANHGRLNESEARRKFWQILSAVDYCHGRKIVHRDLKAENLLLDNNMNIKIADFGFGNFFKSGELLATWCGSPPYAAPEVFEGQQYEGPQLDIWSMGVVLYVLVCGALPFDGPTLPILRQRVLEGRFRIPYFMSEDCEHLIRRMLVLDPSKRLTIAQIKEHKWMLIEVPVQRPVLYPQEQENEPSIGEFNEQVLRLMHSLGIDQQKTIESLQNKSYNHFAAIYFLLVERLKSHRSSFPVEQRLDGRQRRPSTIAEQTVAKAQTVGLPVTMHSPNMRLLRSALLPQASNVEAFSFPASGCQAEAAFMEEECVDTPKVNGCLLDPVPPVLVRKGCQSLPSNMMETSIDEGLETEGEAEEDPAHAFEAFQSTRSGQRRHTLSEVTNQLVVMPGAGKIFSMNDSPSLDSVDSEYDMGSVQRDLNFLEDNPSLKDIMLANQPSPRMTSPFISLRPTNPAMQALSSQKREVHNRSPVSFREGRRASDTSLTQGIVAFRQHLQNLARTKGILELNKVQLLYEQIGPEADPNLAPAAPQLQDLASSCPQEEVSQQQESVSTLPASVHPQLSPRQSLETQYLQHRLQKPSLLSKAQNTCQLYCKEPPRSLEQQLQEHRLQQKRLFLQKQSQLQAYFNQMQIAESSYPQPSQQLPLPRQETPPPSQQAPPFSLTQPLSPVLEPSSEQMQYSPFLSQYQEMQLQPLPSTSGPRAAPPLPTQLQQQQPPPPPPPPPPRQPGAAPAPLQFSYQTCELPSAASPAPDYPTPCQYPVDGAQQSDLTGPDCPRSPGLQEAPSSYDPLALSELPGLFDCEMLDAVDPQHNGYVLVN
From the text: as §1

[5] = target: 363 human kinases (including Aurora A/B/C) (Homo sapiens, UniProt Q92918); conditions: HPK1/MAP4K1; for remaining activity at 0.1 µM: 100 nM; for remaining activity at 0.1 µM / remaining activity at 0.5 µM: read-out: % Enzyme Activity (relative to DMSO controls)
363 human kinases (including Aurora A/B/C) (Homo sapiens, UniProt Q92918), sequence (Q92918 whole entry): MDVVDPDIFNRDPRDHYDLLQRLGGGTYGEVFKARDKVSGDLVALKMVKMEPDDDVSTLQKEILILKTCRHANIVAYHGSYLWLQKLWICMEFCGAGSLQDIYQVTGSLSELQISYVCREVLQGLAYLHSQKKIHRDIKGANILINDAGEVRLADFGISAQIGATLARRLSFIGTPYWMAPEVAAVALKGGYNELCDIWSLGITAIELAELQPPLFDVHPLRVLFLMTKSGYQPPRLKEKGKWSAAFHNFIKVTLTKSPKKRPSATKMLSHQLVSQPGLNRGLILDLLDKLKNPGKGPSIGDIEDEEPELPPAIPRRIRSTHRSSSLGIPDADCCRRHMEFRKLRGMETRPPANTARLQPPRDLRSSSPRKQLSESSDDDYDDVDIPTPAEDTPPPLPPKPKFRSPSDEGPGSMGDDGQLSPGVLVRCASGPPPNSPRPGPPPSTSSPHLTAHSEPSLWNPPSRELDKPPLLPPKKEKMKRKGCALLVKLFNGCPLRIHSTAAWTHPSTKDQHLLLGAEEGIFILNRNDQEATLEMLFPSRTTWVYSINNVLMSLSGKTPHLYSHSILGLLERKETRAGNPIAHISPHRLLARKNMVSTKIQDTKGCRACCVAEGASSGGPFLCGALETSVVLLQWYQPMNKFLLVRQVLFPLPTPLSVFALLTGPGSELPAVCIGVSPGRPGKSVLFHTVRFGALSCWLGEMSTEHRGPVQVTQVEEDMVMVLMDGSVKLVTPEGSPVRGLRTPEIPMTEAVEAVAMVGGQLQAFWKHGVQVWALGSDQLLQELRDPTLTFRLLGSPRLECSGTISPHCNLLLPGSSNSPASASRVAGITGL
From the text: as §1

363 human kinases (including Aurora A/B/C) (Homo sapiens, UniProt Q9Y463), sequence (Q9Y463 whole entry): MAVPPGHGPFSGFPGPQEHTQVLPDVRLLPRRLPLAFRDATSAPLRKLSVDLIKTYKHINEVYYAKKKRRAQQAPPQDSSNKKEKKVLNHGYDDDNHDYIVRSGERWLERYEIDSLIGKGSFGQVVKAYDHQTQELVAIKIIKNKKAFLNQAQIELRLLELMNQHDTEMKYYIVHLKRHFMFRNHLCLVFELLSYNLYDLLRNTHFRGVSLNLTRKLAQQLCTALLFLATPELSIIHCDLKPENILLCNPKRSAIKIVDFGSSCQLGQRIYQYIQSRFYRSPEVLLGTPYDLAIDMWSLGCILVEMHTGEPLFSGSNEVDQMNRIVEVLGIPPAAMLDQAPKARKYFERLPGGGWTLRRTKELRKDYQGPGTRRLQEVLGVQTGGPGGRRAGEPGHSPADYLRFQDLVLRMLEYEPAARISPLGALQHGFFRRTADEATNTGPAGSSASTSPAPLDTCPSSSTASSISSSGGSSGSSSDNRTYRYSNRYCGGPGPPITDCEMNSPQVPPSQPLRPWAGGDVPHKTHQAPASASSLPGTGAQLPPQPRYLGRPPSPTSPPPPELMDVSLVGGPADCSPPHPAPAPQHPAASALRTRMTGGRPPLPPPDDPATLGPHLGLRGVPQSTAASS

SMILES	remaining activity at 0.1 µM [1]	remaining activity at 0.1 µM [2]	remaining activity at 0.1 µM [3]	remaining activity at 0.1 µM [4]	remaining activity at 0.1 µM [5]	remaining activity at 0.5 µM ([1]; 500 nM)	remaining activity at 0.5 µM ([2]; 500 nM)	remaining activity at 0.5 µM ([3]; 500 nM)	remaining activity at 0.5 µM ([4]; 500 nM)	remaining activity at 0.5 µM ([5]; 500 nM)	% Enzyme Activity (relative to DMSO controls) ([1]; 500 nM)	% Enzyme Activity (relative to DMSO controls) ([2]; 500 nM)	% Enzyme Activity (relative to DMSO controls) ([3]; 500 nM)	% Enzyme Activity (relative to DMSO controls) ([4]; 500 nM)	% Enzyme Activity (relative to DMSO controls) ([5]; 500 nM)
CCn1cc(-c2ccnc3[nH]c(-c4cccc(CN(C)C)c4)cc23)c(-c2ccc(NC(=O)N(C)C)cc2)n1 [GSK1070916]	99.6%	79.6%	111%	40%	109%	–	–	–	–	–	–	–	–	–	–
O=C(O)[C@]1(Cc2cccc(Nc3nccs3)n2)CC[C@@H](Oc2cccc(Cl)c2F)CC1 [MK-5108]	91.7%	85.6%	107%	96.5%	105%	68.3%	73.8%	104%	93.3%	82.1%	–	–	–	–	–
O=C(c1cccc(Cl)c1F)N1CCN(Cc2cccc(Nc3nccs3)n2)CC1 [MK-8745]	–	–	–	–	–	95.3%	78.7%	93.8%	98.7%	87.3%	94.80%	78.24%	92.67%	96.62%	81.94%
